Where two headings read alike, the source gives them in different places.
Columns and labels:
planktonic MRPA and MRSA = assay: Example IV: planktonic MRPA and MRSA study; assay type: cell-based; conditions: for planktonic MRPA and MRSA reduction compared to the control: methylene blue 0.005% w/v, no EDTA
Experimental: An in vitro study was conducted on planktonic MRPA and MRSA using the following compositions. (i) compositions each comprising EDTA at One of the following concentrations: 0.005 mM, 0.01 mM, 0.025 mM, 0:05 mM (0.0014612% w/v), 0.075 mM (0.0021918% w/v), 0.1 mM, 0.175 mM, 0.25 mM and 0.4 mM (0.0116896% w/v); (ii) composition comprising of methylene blue at a concentration of 0.005% w/v; and (iii) compositions each comprising of methylene blue at a concentration of 0.005% w/v with EDTA at one of the following concentrations: 0.005 mM, 0.01 mM, 0:025 mM, 0.05 mM, 0.075 mM, 0.1 mM 0.175 mM, 0.25 mM and 0.4 mM. The planktonic MRPA and MRSA samples were prepared in the same fashion as described in Example 1 in order to obtain approximately 1.5×10^8 cells/mL of MRPA and approximately 1.5×10^8 cells/mL of MRSA which were then combined.
Each of the compositions discussed above was prepared and then mixed with the combined bacterial solution of MRPA and MRSA and incubated for 30 seconds (“treated samples”). Thereafter, test tubes were prepared each containing 50 μl of one of the treated samples. Some of these test tubes were kept in dark incubation for 400 seconds while the remaining test tubes were exposed to 664 nm light using a non-laser light at a power density of 100 mW/cm^2 and a light energy dose of 10 J/cm^2.
Thereafter, a cotton-tipped swab (Puritan, Guilford, Me.) was dipped into the suspension contained within each test tube, placed in 1 mL of PBS With the stick broken off, and then vortexed for 3-5 seconds (“test samples”). […] The colonies were counted by a Protos automated counter (Synoptics, Frederick, Md.) to determine the number of viable bacteria and expressed as colony forming units (CFU). […] Counts for all experimental and control conditions were averaged and expressed as CFU/ml.
The planktonic MRPA and MRSA reduction rate was calculated as surviving CFU/ml in experimental conditions vs. the control (i.e., test samples that received no treatment) expressed as a log10 reduction from control and shown in FIGS. 6-7.

[1] = tested on: polymicrobial biofilms containing MRPA and MRSA; assay: Example I: photodynamic disinfection of polymicrobial biofilm discs; assay type: cell-based
Experimental: (§1) An in vitro study was conducted on polymicrobial biofilms containing MRPA and MRSA using the following compositions: (i) compositions each comprising EDTA at one of the following concentrations: 0.5 mM (0.014612% w/v), 0.75 mM, 1.0 mM and 1.25 mM; (ii) composition comprising of methylene blue at a concentration of 0.05% w/v; (iii) compositions each comprising methylene blue at a concentration of 0.05% w/v and EDTA at one of the following concentrations: 0.5 mM, 0.75 mM, 1.0 mM and 1.25 mM. Clinical isolates of MRPA and MRSA were used in this study. Overnight tryptic soy broth (Remel, Lenexa, Kans.) cultures were centrifuged for 15 minutes at 5,000 RPM. The supernatants were removed and the cells washed and resuspended in 1× phosphate buffered saline (PBS) by alternate rounds of centrifugation for 2 minutes at 12.1×g and resuspension. Resulting bacterial suspensions were diluted with PBS to obtain approximately 1.5×10^5 cells/mL of each bacterium measured using a CrystalSpec nephlometer (BD Diagnostic Systems, Sparks, Md.). The suspensions were then combined. […]
(§2) Thereafter, all of the biofilm discs were each placed in a sterile 50 mL centrifuge tube with 1 mL of PBS, vortexed vigorously for one minute. […] The colonies were counted by a Protos automated counter (Synoptics, Frederick, Md.) to determine the total number of viable bacteria and expressed as colony forming units (CFU). […]

[2] = cited from earlier work
[3] = tested on: Pseudomonas aeruginosa ATCC # 9027 in polymicrobial biofilms; assay: Example III: polymicrobial biofilm study, Pseudomonas aeruginosa count; assay type: cell-based; conditions: no EDTA, 669 nm, 72 J/cm^2
Experimental: An in vitro study was conducted on polymicrobial biofilms containing MRSA and Pseudomonas aeruginosa. Stock cultures of MRSA ATCC # 33592 and Pseudomonas aeruginosa ATCC # 9027 were grown aerobically overnight on tryptic soy agar, harvested individually, and suspended in PBS solution with MRSA at a concentration of ˜2×10^8 CFU/ml and Pseudomonas aeruginosa at a concentration of ˜3×10^6 CFU/ml. Cell densities were measured as a function of absorbance at 420 nm using a Genesys 10 spectrophotometer (Thermo Scientific, Pittsburgh, Pa.). Pseudomonas aeruginosa inocula were then serial diluted in PBS to a concentration of ˜3×10^4 CFU/ml. The two suspended inocula (MRSA and Pseudomonas aeruginosa) were mixed at a ratio of 1:1 and then further diluted 1:40 into tryptic soy broth to achieve the biofilm inoculum of having a MRSA final concentration of ˜2.5×10^6 CFU/ml and Pseudomonas aeruginosa at a final concentration of ˜3.75×10^3 CFU/ml
The biofilm inoculum, prepared as described above, was then pipetted onto 8 mm diameter sterile silicone discs placed inside a 24-well culture plate with 600 μl of the biofilm inoculum per well. The plates were then allowed to shake for 24 hours at 125 rotations per minute using an Innova 200 platform gyrorotary shaker (New Brunswick Scientific Co, Edison N.J.) at 35° C. After 24 hours, all residual liquid from each well was removed and 600 μl of sterile tryptic soy broth was added to each well. […]
Immediately following illumination, the glass cover slip was removed carefully using sterile forceps and biofilm disc surfaces were swabbed using a calcium alginate swab following a reproducible “X” pattern. […] Colony counts were counted separately for each bacterial species (i.e., MRSA and Pseudomonas aeruginosa) providing differentiation of reduction for each of the bacterial species. Counts for all experimental and control conditions were averaged and expressed as CFU/ml. The bacteria reduction rate was calculated as surviving CFU/ml in experimental conditions vs. the control expressed as a log10 reduction from the control. […]

[4] = tested on: polymicrobial biofilms containing MRPA and MRSA; assay: Example II: repeat polymicrobial biofilm study, protocol of Example I; assay type: cell-based; conditions: FIG. 2; methylene blue 0.05% w/v, no EDTA
Experimental: as §1, §2

Row | Compound | bacterial count reduction (planktonic MRPA and MRSA; EDTA alone at 0.005 mM to 0.4 mM, without light (dark incubation for 400 seconds)) | biofilm bacterial count reduction ([1]; EDTA alone at 0.5 mM, 0.75 mM, 1.0 mM and 1.25 mM) | yield of the singlet oxygen generation ([2]; pH 5) | yield of the singlet oxygen generation ([2]; pH 9) | Pseudomonas aeruginosa reduction compared to the control ([3]; FIG. 3, methylene blue 0.01% w/v) [log10] | Pseudomonas aeruginosa reduction compared to the control ([3]; FIG. 4, methylene blue 0.03% w/v) [log10] | Pseudomonas aeruginosa reduction compared to the control ([3]; FIG. 5, methylene blue 0.05% w/v) [log10] | planktonic MRPA and MRSA reduction compared to the control (planktonic MRPA and MRSA; FIG. 6, without any light (dark incubation 400 seconds)) [log10] | planktonic MRPA and MRSA reduction compared to the control (planktonic MRPA and MRSA; FIG. 7, with light treatment (664 nm, 10 J/cm^2)) [log10] | bacterial reduction compared to the control [4] [log10] | bacterial reduction compared to the control ([1]; FIG. 1, methylene blue 0.05% w/v, no EDTA, 664 nm, 45 J/cm^2) [log10]
1 | O=C(O)CN(CCN(CC(=O)O)CC(=O)O)CC(=O)O [EDTA, ethylenediaminetetraacetic acid] | did not result in any statistically significant bacterial count reduction | did not result in any statistically significant biofilm bacterial count reduction | – | – | – | – | – | – | – | – | –
2 | CN(C)c1ccc2nc3ccc(=[N+](C)C)cc-3sc2c1 [methylene blue] | – | – | 0.2 | 0.94 | 2.9 | 2.9 | 2.6 | 2.4 | 3.5 | 3.4 | 2.5

— patent US20120029418A1, “COMPOSITION AND METHOD FOR PHOTODYNAMIC DISINFECTION” (Advanced Photodynamic Technologies, Inc., priority 2010, published 2012)
